Laboratory results reported in US10206937B2, “Boronic acid derivatives and therapeutic uses thereof” (Qpex Biopharma, Inc., priority 2014, dated 2019).
Converted amounts (≈) assume the structure as drawn. Read-outs that look alike come from different tables or passages of the source.

How the values were obtained:
[1] = test system: KP1081 (NDM-1, TEM-1, SHV-11, CMY-6, CTX-M-15); assay: Carbapenem potentiation against clinical isolate (MIC); format: cell-based; conditions: for Carbapenem MIC Alone: antibiotic alone
KP1054 (VIM-1, SHV-11) = assay: as above; format: cell-based, Klebsiella pneumoniae; conditions: for Carbapenem MIC Alone: antibiotic alone
[2] = test system: KP1086 (TEM, SHV, CTX-M-15, OXA-48); assay: as above; format: cell-based, Klebsiella pneumoniae; conditions: for Carbapenem MIC Alone: antibiotic alone
[3] = test system: KP1064 (KPC-2, SHV-11, TEM-1); assay: as above; format: cell-based, Klebsiella pneumoniae; conditions: for Carbapenem MIC Alone: antibiotic alone
EA1019 (SHV-5, VIM-1) = assay: as above; format: cell-based, Enterobacter aerogenes
[4] = test system: EC1064 (NDM-1, CMY-6, CTX-M-15); assay: as above; format: cell-based, Escherichia coli; conditions: for Carbapenem MIC Alone: antibiotic alone
[5] = test system: KP1084 (KPC-3, SHV-11, TEM-1); assay: as above; format: cell-based, Klebsiella pneumoniae; conditions: for Carbapenem MIC Alone: antibiotic alone
KP1014 (VIM-1) = assay: as above; format: cell-based, Klebsiella pneumoniae; conditions: for Carbapenem MIC Alone: antibiotic alone
[6] = test system: KP1004 (KPC-2, TEM-1, SHV-11); assay: as above; format: cell-based, Klebsiella pneumoniae; conditions: for Carbapenem MIC Alone: antibiotic alone
[7] = test system: KP1087 (KPC-2, CTX-M-15, SHV-11, TEM-1); assay: as above; format: cell-based; conditions: for Carbapenem MIC Alone: antibiotic alone
[8] = test system: KP1074 (KPC-3, SHV-11, TEM); assay: as above; format: cell-based, Klebsiella pneumoniae; conditions: for Carbapenem MIC Alone: antibiotic alone
AB1144 (NDM-1) = assay: as above; format: cell-based, Acinetobacter baumannii
KP1059 (VIM-1, SHV-11) = assay: Biapenem potentiation against clinical isolate (MIC); format: cell-based; conditions: Klebsiella pneumoniae, biapenem alone
Text: The results are present in Table 9.

ECM6704 (pUCP24) = assay: microbe, parasite or virus in culture; format: cell-based, E. coli; conditions: Escherichia coli, read-out: Imipenem MIC Alone
ECM6711 (pUCP24-VIM-1) = format: cell-based, E. coli
ECM6703 (pUCP24-NDM-1) = format: cell-based, E. coli
[9] = test system: strains of Enterobacteriaceae overexpressing various carbapenemases (class A and B); assay: organism not typed; format: cell-based
Text: Several strains simultaneously expressing both class A and class B carbapenemases, which were constructed using conjugation, were also included in the panel.

[10] = Klebsiella pneumoniae, biapenem alone

C[C@@H](O)[C@H]1C(=O)N2C(C(=O)[O-])=C(SC3Cn4cnc[n+]4C3)[C@H](C)[C@H]12 (stereo partly drawn) [Biapenem]
MIC [1, 10]: > 10 µg/mL
Carbapenem MIC Alone [1]: Z (MIC of greater than 10 μg/mL)
MIC (KP1054 (VIM-1, SHV-11); [10]): > 10 µg/mL
Carbapenem MIC Alone (KP1054 (VIM-1, SHV-11)): Z (MIC of greater than 10 μg/mL)
MIC [2, 10]: > 10 µg/mL
Carbapenem MIC Alone [2]: Z (MIC of greater than 10 μg/mL)
MIC [3, 10]: > 10 µg/mL
Carbapenem MIC Alone [3]: Z (MIC of greater than 10 μg/mL)
Carbapenem MIC Alone (EA1019 (SHV-5, VIM-1); EA1019, antibiotic alone): Z (MIC of greater than 10 μg/mL)
MIC (EA1019 (SHV-5, VIM-1); Klebsiella aerogenes, EA1019, biapenem alone): > 10 µg/mL
MIC ([4]; Escherichia coli, biapenem alone): > 10 µg/mL
Carbapenem MIC Alone [4]: Z (MIC of greater than 10 μg/mL)
MIC [5, 10]: > 10 µg/mL
Carbapenem MIC Alone [5]: Z (MIC of greater than 10 μg/mL)
MIC (KP1014 (VIM-1); [10]): > 10 µg/mL
Carbapenem MIC Alone (KP1014 (VIM-1)): Z (MIC of greater than 10 μg/mL)
MIC [6, 10]: > 10 µg/mL
Carbapenem MIC Alone [6]: Y (MIC of 1 μg/mL to 10 μg/mL)
MIC [7, 10]: > 10 µg/mL
Carbapenem MIC Alone [7]: Z (MIC of greater than 10 μg/mL)
MIC [8, 10]: > 10 µg/mL
Carbapenem MIC Alone [8]: Z (MIC of greater than 10 μg/mL)
Carbapenem MIC Alone (AB1144 (NDM-1); AB1144, antibiotic alone): Y (MIC of 1 μg/mL to 10 μg/mL)
MIC (AB1144 (NDM-1); Acinetobacter baumannii, AB1144, biapenem alone): > 10 µg/mL
MIC (KP1059 (VIM-1, SHV-11)): > 10 µg/mL

C[C@@H](O)[C@H]1C(=O)N2C(C(=O)O)=C(SCCN=CN)C[C@H]12 [Imipenem]
Carbapenem MIC Alone [1]: Z (MIC of greater than 10 μg/mL)
Carbapenem MIC Alone (KP1054 (VIM-1, SHV-11)): Y (MIC of 1 μg/mL to 10 μg/mL)
Carbapenem MIC Alone [2]: Z (MIC of greater than 10 μg/mL)
MIC (ECM6704 (pUCP24)): < 1 µg/mL
Carbapenem MIC Alone [3]: Z (MIC of greater than 10 μg/mL)
Carbapenem MIC Alone (EA1019 (SHV-5, VIM-1)): Z (key: X: MIC of less than 1 μg/mL; Y: MIC of 1 μg/mL to 10 μg/mL; Z: MIC of greater than 10 μg/mL)
Carbapenem MIC Alone [4]: Z (MIC of greater than 10 μg/mL)
Carbapenem MIC Alone [5]: Z (MIC of greater than 10 μg/mL)
Carbapenem MIC Alone (KP1014 (VIM-1)): Z (MIC of greater than 10 μg/mL)
Carbapenem MIC Alone [6]: Z (MIC of greater than 10 μg/mL)
Carbapenem MIC Alone [7]: Y (MIC of 1 μg/mL to 10 μg/mL)
Imipenem MIC Alone (ECM6711 (pUCP24-VIM-1)): Y (key: X: MIC of less than 1.0 μg/mL; Y: MIC of 1.0 μ/mL or above)
Carbapenem MIC Alone [8]: Z (MIC of greater than 10 μg/mL)
Imipenem MIC Alone (ECM6703 (pUCP24-NDM-1)): Y (key: X: MIC of less than 1.0 μg/mL; Y: MIC of 1.0 μ/mL or above)
Carbapenem MIC Alone (AB1144 (NDM-1)): Z (key: X: MIC of less than 1 μg/mL; Y: MIC of 1 μg/mL to 10 μg/mL; Z: MIC of greater than 10 μg/mL)
MIC [9]: 1 to 10 µg/mL (≈ 3.34 to 33.4 µM)
MIC ([9]; Klebsiella aerogenes): > 10 µg/mL
